Values of other authors, collected in patent US20170232011A1, “PHARMACEUTICAL COMPOSITION AND METHOD FOR THE TREATMENT OF URINARY TRACT INFECTIONS” (priority 2016, published 2017).

Assays:
[1] = 100 mg oral dose
[2] = test system: Staphylococcus saprophyticus
[3] = test system: Coagulase negative staphylococci

SMILES	activity against Citrobacter species (Citrobacter species)	plasma levels ([1]; plasma)	level in the urine ([1]; urine)	activity against Klebsiella species (Klebsiella species)	activity against Streptococcus agalactiae (Streptococcus agalactiae)	activity against Staphylococcus saprophyticus [2]	activity against E. coli (E. coli)	activity against Enterococcus faecalis (Enterococcus faecalis)	activity against Staphylococcus aureus (Staphylococcus aureus)	activity against Coagulase negative staphylococci [3]	oral dose excreted directly into the urine chemically unchanged
O=C1CN(N=Cc2ccc([N+](=O)[O-])o2)C(=O)N1 [Nitrofurantoin, 1-[[[5-nitro-2-furanyl]methylene]amino]-2,4-imidazolidinedione]	good activity	less than 1 μg/ml	200 µg/mL	good activity	good activity	good activity	good activity	good activity	good activity	good activity	
Nc1ccc(N=Nc2ccccc2)c(N)n1 [Phenazopyridine, 3-phenyldiazenylpyridine-2,6-diamine]											~65%
